The results in this text go back to US8461107B2 (Merck Sharp & Dohme Corp., priority 2008, dated 2013).

Where only a bound is given, the exact number is not on record here.

This assay addresses T1, HCV genotype 1b (BK) NS3 modified with a R155K mutation (Hepatitis C virus genotype 1b, UniProt P26663, R1181K).
T1 construct: HCV genotype 1b (BK) NS3 modified with a R155K mutation
Kind of assay: HCV NS3 protease time-resolved fluorescence (TRF) assay, NS3 protease 1b R155K Ki activity. Type of assay: biochemical. To be noted: HCV genotype 1b (BK) NS3 with R155K mutation; TRF peptide substrate 100 nM; Ki derived from IC50. Put shortly:
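Pre-incubation of NS3/NS4A protease (genotype 1b BK, R155K) with inhibitor for 30 min, then 1 h at room temperature with 100 nM TRF peptide substrate in pH 7.5 HEPES buffer with 10 mM DTT. Reaction quenched with pH 5.5 MES; time-resolved fluorescence read (ex 340/em 615 nm). Ki derived from four-parameter IC50 fit via IC50=Ki(1+[S]/KM).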
Take `C=C[C@@H]1C[C@]1(NC(=O)[C@@H]1C[C@@H]2CN1C(=O)[C@H](C1CCCC1)NC(=O)O[C@@H]1CCC[C@H]1CC/C=C/Cn1c(nc3cc(Br)ccc3c1=O)O2)C(=O)NS(=O)(=O)C1CC1` [Example 43, (3aR,7S,10S,12R,22E,25aS)-16-bromo-7-cyclopentyl-N-((1R,2S)-1-{[(cyclopropylsulfonyl)amino]carbonyl}-2-vinylcyclopropyl)-5,8,19-trioxo-1,2,3,3a,5,6,7,8,11,12,21,24,25,25a-tetradecahydro-10H,19H-9,12-methanocyclopenta[18,19][1,10,3,6,12]dioxatriazatriazacyclononadecino[11,12-b]quinazoline-10-carboxamide]: the Ki was less than 0.1 nM.

Regarding `CC[C@@H]1C[C@]1(NC(=O)[C@@H]1C[C@@H]2CN1C(=O)[C@H](C1CCCC1)NC(=O)O[C@@H]1CCC[C@H]1CC/C=C/Cn1c(nc3cc(OC)ccc3c1=O)O2)C(=O)NS(=O)(=O)C1CC1` [Example 50, (3aR,7S,10S,12R,22E,25aS)-7-cylcopentyl-N-((1R,2R)-1-{[(cyclopropylsulfonyl)amino]carbonyl}-2-ethylcyclopropyl)-16-methoxy-5,8,19-trioxo-1,2,3,3a,5,6,7,8,11,12,21,24,25,25a-tetradecahydro-10H,19H-9,12-methanocyclopenta[18,19][1,10,3,6,12]dioxatriazacyclononadecino[11,12-b]quinazoline-10-carboxamide], the Ki is 0.1 to 0.5 nM.

`C=C[C@@H]1C[C@]1(NC(=O)[C@@H]1C[C@@H]2CN1C(=O)[C@H](C1CCCC1)NC(=O)O[C@@H]1CCC[C@H]1CC/C=C/Cn1c(nc3c(OC)cccc3c1=O)O2)C(=O)NS(=O)(=O)C1CC1` [Example 51] yielded a Ki of less than 0.1 nM.

The compound `C=C[C@@H]1C[C@]1(NC(=O)[C@@H]1C[C@@H]2CN1C(=O)[C@H](C1CCCC1)NC(=O)O[C@@H]1CCC[C@H]1CC/C=C/Cc1c(nc3cc(OC)ccn3c1=O)O2)C(=O)NS(=O)(=O)C1CC1` [Example 57, (3aR,7S,10S,12R,22E,25aS)-7-cyclopentyl-N-((1R,2S)-1-{[(cyclopropylsulfonyl)amino]carbonyl}-2-vinylcylcopropyl)-16-methoxy-5,8,20-trioxo-1,2,3,3a,5,6,7,8,11,12,21,24,25,25a-tetradecahydro-10H,20H-9,12-methanocyclopenta[r]pyrido[1′,2′:1,2]pyrimido[4,5-k][1,10,3,6]dioxadiazacyclononadecine-10-carboxamide] came in with an inhibitory constant (Ki) of less than 0.1 nM.

For `C=C[C@@H]1C[C@]1(NC(=O)[C@@H]1C[C@@H]2CN1C(=O)[C@H](C1CCCC1)NC(=O)O[C@@H]1CCC[C@H]1CC/C=C/Cn1c(nc3cc(C)ccc3c1=O)O2)C(=O)NS(=O)(=O)C1CC1` [Example 61], the Ki is less than 0.1 nM.

In turn, `C=C[C@@H]1C[C@]1(NC(=O)[C@@H]1C[C@@H]2CN1C(=O)[C@H](C1CCCC1)NC(=O)O[C@@H]1CCC[C@H]1CC/C=C/Cn1c(nc3cc(C#N)ccc3c1=O)O2)C(=O)NS(=O)(=O)C1CC1` [Example 63, (3aR,7S,10S,12R,22E,25a8)-16-cyano-7-cyclopentyl-N-((1R,2S)-1-{[(cyclopropylsulfonyl)amino]carbonyl}-2-vinylcyclopropyl)-5,8,19-trioxo-1,2,3,3a,5,6,7,8,11,12,21,24,25,25a-tetradecahydro-10H,19H-9,12-methanocyclopenta[18,19][1,10,3,6,12]dioxatriazacyclononadecino[11,12-b]quinazoline-10-carboxamide] gave a Ki of less than 0.1 nM.

The compound `C=C[C@@H]1C[C@]1(NC(=O)[C@@H]1C[C@@H]2CN1C(=O)[C@H](C1CCCC1)NC(=O)O[C@@H]1CCC[C@H]1CCCCCn1c(nc3cc(C#N)ccc3c1=O)O2)C(=O)NS(=O)(=O)C1CC1` [Example 78, (3aR,7S,10S,12R,25aR)-16-cyano-7-cyclopentyl-N-((1R,2S)-1-{[(cycyclopropylsulfonyl)amino]carbonyl}-2-vinylcyclopropyl)-5,8,19-trioxo-1,2,3,3a,5,6,7,8,11,12,21,22,23,24,25,25a-hexadecahydro-10H,19H-9,12-methanocyclopenta[18,19][1,10,3,6,12]dioxatriazacyclononadecino[11,12-b]quinazoline-10-carboxamide] gave an inhibition constant (Ki) of 0.1 to 0.5 nM.

With `C=C[C@@H]1C[C@]1(NC(=O)[C@@H]1C[C@@H]2CN1C(=O)[C@H](C1CCCC1)NC(=O)O[C@@H]1CCC[C@H]1CCC=CCn1c(cccc1=O)O2)C(=O)NS(=O)(=O)C1CC1` [Example 81, (1R,10E, and 10Z,14S,18R,22S,25S)-22-Cyclopentyl-N-((1R,2S)-1-{[(cyclopropyl-sulfonyl)amino]carbonyl}-2-vinylcyclopropyl)-7,20,23-trioxo-2,19-dioxa-8,21,24-tri azatetracyclo[22.2.1.0^3,8.0^14,18]heptacosa-3,5,10-triene-25-carboxamide], the Ki was 0.1 to 0.5 nM.
